Reference: patent publication US7547690B2, “Compounds for the treatment of Hepatitis C” (Bristol-Myers Squibb Company, priority 2007, dated 2009)
Where two headings read alike, the source gives them in different places.

Tests used:
HCV NS5B = target: T1, HCV NS5B (Hepatitis C virus genotype 1b, UniProt Q9WMX2); assay: HCV NS5B RdRp enzyme assay (standard / modified); type: biochemical; conditions: HCV RdRp genotype 1b; standard or modified assay not specified; read-out: IC50
T1 construct: The protein was expressed with an 18 amino acid C-terminal truncation to enhance the solubility; made in house; host or cells: E. coli BL21(DE3)
T1 sequence (Q9WMX2 2420-2992): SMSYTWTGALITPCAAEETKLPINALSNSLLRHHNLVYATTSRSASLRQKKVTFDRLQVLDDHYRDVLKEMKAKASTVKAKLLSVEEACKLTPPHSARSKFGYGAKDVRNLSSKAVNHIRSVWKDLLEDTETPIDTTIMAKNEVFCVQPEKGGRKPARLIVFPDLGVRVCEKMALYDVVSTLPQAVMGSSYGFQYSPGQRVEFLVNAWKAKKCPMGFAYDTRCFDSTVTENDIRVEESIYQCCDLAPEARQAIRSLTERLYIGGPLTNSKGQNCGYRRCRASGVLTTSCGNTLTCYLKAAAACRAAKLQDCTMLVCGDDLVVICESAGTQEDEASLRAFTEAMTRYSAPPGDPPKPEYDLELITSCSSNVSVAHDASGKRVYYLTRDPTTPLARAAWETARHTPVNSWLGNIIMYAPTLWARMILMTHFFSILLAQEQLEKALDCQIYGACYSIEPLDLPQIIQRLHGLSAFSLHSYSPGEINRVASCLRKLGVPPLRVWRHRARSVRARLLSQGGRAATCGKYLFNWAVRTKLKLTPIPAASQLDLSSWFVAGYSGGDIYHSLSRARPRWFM
Description: HCV NS5B RdRp cloning, expression, and purification. The cDNA encoding the NS5B protein of HCV, genotype 1b, was cloned into the pET21a expression vector. The protein was expressed with an 18 amino acid C-terminal truncation to enhance the solubility. The E. coli competent cell line BL21(DE3) was used for expression of the protein. Cultures were grown at 37° C. for ˜4 hours until the cultures reached an optical density of 2.0 at 600 nm. The cultures were cooled to 20° C. and induced with 1 mM IPTG. Fresh ampicillin was added to a final concentration of 50 μg/ml and the cells were grown overnight at 20° C.
Cell pellets (3 L) were lysed for purification to yield 15-24 mgs of purified NS5B. The lysis buffer consisted of 20 mM Tris-HCl, pH 7.4, 500 mM NaCl, 0.5% triton X-100, 1 mM DTT, 1 mM EDTA, 20% glycerol, 0.5 mg/ml lysozyme, 10 mM MgCl2, 15 ug/ml deoxyribonuclease I, and Complete TM protease inhibitor tablets (Roche). After addition of the lysis buffer, frozen cell pellets were resuspended using a tissue homogenizer. To reduce the viscosity of the sample, aliquots of the lysate were sonicated on ice using a microtip attached to a Branson sonicator. The sonicated lysate was centrifuged at 100,000×g for 1 hr at 4° C. and filtered through a 0.2 μm filter unit (Corning).
The protein was purified using two sequential chromatography steps: Heparin sepharose CL-6B and polyU sepharose 4B (Pharmacia). The chromatography buffers were identical to the lysis buffer but contained no lysozyme, deoxyribonuclease I, MgCl2 or protease inhibitor and the NaCl concentration of the buffer was adjusted according to the requirements for charging the protein onto the column. Each column was eluted with a NaCl gradient which varied in length from 5-50 column volumes depending on the column type. After the final chromatography step, the resulting purity of the enzyme is >90% based on SDS-PAGE analysis. The enzyme was aliquoted and stored at −80° C.
Standard HCV NS5B RdRp enzyme assay. HCV RdRp genotype 1b assays were run in a final volume of 60 μl in 96 well plates (Corning 3600). The assay buffer is composed of 20 mM Hepes, pH 7.5, 2.5 mM KCl, 2.5 mM MgCl2, 1 mM DTT, 1.6 U RNAse inhibitor (Promega N2515), 0.01 mg/ml BSA (Sigma B6917), and 2% glycerol. All compounds were serially diluted (3-fold) in DMSO and diluted further in water such that the final concentration of DMSO in the assay was 2%. HCV RdRp genotype 1b enzyme was used at a final concentration of 28 nM. A polyA template was used at 6 nM, and a biotinylated oligo-dT12 primer was used at 180 nM final concentration. Template was obtained commercially (Amersham 27-4110). Biotinylated primer was prepared by Sigma Genosys. 3H-UTP was used at 0.6 μCi (0.29 μM total UTP). Reactions were initiated by the addition of enzyme, incubated at 30 ° C. for 60 min, and stopped by adding 25 μl of 50 mM EDTA containing SPA beads (4 μg/μl, Amersham RPNQ 0007). Plates were read on a Packard Top Count NXT after >1 hr incubation at room temperature.
Modified HCV NS5B RdRp enzyme assay. A modified enzyme assay was performed essentially as described for the standard enzyme assay except for the following: The biotinylated oligo dT12 primer was precaptured on streptavidin-coated SPA beads by mixing primer and beads in assay buffer and incubating at room temperature for one hour. Unbound primer was removed after centrifugation. The primer-bound beads were resuspended in 20 mM Hepes buffer, pH 7.5 and used in the assay at final concentrations of 20 nM primer and 0.67 μg/μl beads. Order of addition in the assay: enzyme (1.75 nM) was added to diluted compound followed by the addition of a mixture of template (0.36 nM), 3H-UTP (0.6 μCi, 0.29 μM), and primer-bound beads, to initiate the reaction; concentrations given are final. Reactions were allowed to proceed for 4 hours at 30° C.
IC50 values for compounds were determined using seven different [I]. […]

HCV replicon cells = assay: HCV replicon FRET / luciferase assay; type: cell-based; conditions: 50% reduction in FRET or luciferase activity in HCV replicon cells, read-out: EC50
Description: FRET Assay Preparation. The HCV FRET screening assay was performed in 96-well cell culture plates. The FRET peptide (Anaspec, Inc.) (Taliani et al., Anal. Biochem. 1996, 240, 60-67) contains a fluorescence donor, EDANS, near one end of the peptide and an acceptor, DABCYL, near the other end. The fluorescence of the peptide is quenched by […] resonance energy transfer (RET) between the donor and the acceptor, but as the NS3 protease cleaves the peptide the products are released from RET quenching and the fluorescence of the donor becomes apparent. The assay reagent was made as follows: 5× cell Luciferase cell culture lysis reagent from Promega (#E153A) diluted to 1× with dH2O, NaCl added to 150 mM final, the FRET peptide diluted to 20 μM final from a 2 mM stock.
To prepare plates, HCV replicon cells, with or without a Renilla luciferase reporter gene, were trypsinized and plated in a 96-well plate with titrated test compounds added in columns 3 through 12; columns 1 and 2 contained a control compound (HCV control inhibitor), and the bottom row contained cells with DMSO only. The plates were then placed in a CO2 incubator at 37° C.
Assays. Subsequent to addition of the test compounds described above (FRET Assay Preparation), at various times the plate was removed and Alamar blue solution (Trek Diagnostics, #00-100) was added to measure cellular toxicity. After reading in a Cytoflour 4000 instrument (PE Biosystems), plates were rinsed with PBS and then used for FRET assay by the addition of 30 ul of the FRET peptide assay reagent described above (FRET Assay Preparation) per well. The plate was then placed into the Cytoflour 4000 instrument which had been set to 340 excite/490 emission, automatic mode for up to 20 cycles and the plate read in a kinetic mode. Typically, the signal to noise using an endpoint analysis after the reads was at least three-fold. Alternatively, after Alamar blue reading, plates were rinsed with PBS, then used for luciferase assay using the Promega Dual-Glo Luciferase Assay System or the Promega EnduRen Live Cell Substrate assay.
Compound analysis was performed by quantification of the relative HCV replicon inhibition and the relative cytotoxicity values. To calculate cytoxicity values, the average Alamar Blue fluorescence signals from the control wells were set as 100% non-toxic. The individual signals in each of the compound test wells were then divided by the average control signal and multiplied by 100% to determine […]. To calculate the HCV replicon inhibition values, an average background value was obtained from the two wells containing the highest amount of HCV control inhibitor at the end of the assay period. These numbers were similar to those obtained from naïve Huh-7 cells. The background numbers were then subtracted from the average signal obtained from the control wells and this number was used as 100% activity. The individual signals in each of the compound test wells were then divided by the averaged control values after background subtraction and multiplied by 100% to determine percent activity. EC50 values were calculated as the concentration which caused a 50% reduction in FRET or luciferase activity. The two numbers generated for the compound plate, percent cytoxicity and percent activity, were used to determine compounds of interest for further analysis.

Row | SMILES | IC50 (HCV NS5B) [nM] | EC50 (HCV replicon cells; Hepatitis C virus) [nM] | EC50 (HCV replicon cells) [nM]
1 | COc1ccc2c(c1)C1CC1(S(=O)(=O)N1C3CC1CN(C)C3)Cn1c-2c(C2CCCCC2)c2ccc(C(=O)NS(=O)(=O)N3CCOCC3)cc21 (centres unmarked) | 2.4 to 500 | 2.4 to 500 | 
2 | CCC(C)S(=O)(=O)NC(=O)c1ccc2c(C3CCCCC3)c3n(c2c1)CC1(C(=O)N2C4CC2CN(Cc2ccccc2)C4)CC1c1cc(OC)ccc1-3 (centres unmarked) | 2.4 to 500 | 2.4 to 500 | 
3 | COc1ccc2c(c1)C1CC1(C(=O)N1C[C@H]3C[C@@H]1CN3CC(C)C)Cn1c-2c(C2CCCCC2)c2ccc(C(=O)NS(=O)(=O)C3CC3)cc21 (some centres unmarked) | 2.4 to 500 | 2.4 to 500 | 
4 | COc1ccc2c(c1)C1CC1(C(=O)N1CCN3CCC1CC3)Cn1c-2c(C2CCCCC2)c2ccc(C(=O)NS(=O)(=O)C3CC3)cc21 (centres unmarked) [drawing 71] | 2.4 to 500 |  | 2.4 to 500
5 | CCN1C[C@H]2C[C@@H]1CN2C(=O)C12CC1c1cc(OC)ccc1-c1c(C3CCCCC3)c3ccc(C(=O)NS(=O)(=O)N(C)C)cc3n1C2 (some centres unmarked) | 2.4 to 500 | 2.4 to 500 | 
6 | COc1ccc2c(c1)C1CC1(C(=O)N1CC3CN(C)CC(C1)N3)Cn1c-2c(C2CCCCC2)c2ccc(C(=O)NS(=O)(=O)N(C)C)cc21 (centres unmarked) | 2.4 to 500 | 2.4 to 500 | 
7 | COc1ccc2c(c1)C1CC1(C(=O)N1C3COC[C@@H]1CN(C)C3)Cn1c-2c(C2CCCCC2)c2ccc(C(=O)NS(=O)(=O)CC(C)C)cc21 (some centres unmarked) | 2.4 to 500 | 2.4 to 500 | 
8 | CCN1C[C@H]2C[C@@H]1CN2C(=O)C12CC1c1cc(OC)ccc1-c1c(C3CCCCC3)c3ccc(C(=O)NS(=O)(=O)N4CCC4)cc3n1C2 (some centres unmarked) | 2.4 to 500 | 2.4 to 500 | 
9 | COc1ccc2c(c1)C1CC1(C(=O)N1C3CC1CN(C)C3)Cn1c-2c(C2CCCCC2)c2ccc(C(=O)NS(=O)(=O)C(C)(C)C)cc21 (centres unmarked) | 2.4 to 500 | 2.4 to 500 | 
10 | COc1ccc2c(c1)C1CC1(C(=O)N1C[C@]3(C)CN(C)C[C@](C)(C1)C3O)Cn1c-2c(C2CCCCC2)c2ccc(C(=O)NS(=O)(=O)N(C)C)cc21 (some centres unmarked) | 2.4 to 500 | 2.4 to 500 | 
11 | COc1ccc2c(c1)C1CC1(C(=O)N1C3CCCC1CN(C)C3)Cn1c-2c(C2CCCCC2)c2ccc(C(=O)NS(C)(=O)=O)cc21 (centres unmarked) | 2.4 to 500 | 2.4 to 500 | 
12 | COc1ccc2c(c1)C1CC1(C(=O)N1C3COC[C@@H]1CN(C)C3)Cn1c-2c(C2CCCCC2)c2ccc(C(=O)NS(=O)(=O)C3CCCC3)cc21 (some centres unmarked) | 2.4 to 500 | 2.4 to 500 | 
13 | COc1ccc2c(c1)[C@@H]1C[C@]1(C(=O)N1CCC3CCC(C1)N3C)Cn1c-2c(C2CCCCC2)c2ccc(C(=O)NS(=O)(=O)N(C)C)cc21 (some centres unmarked) | 2.4 to 500 | 2.4 to 500 | 
